The record followed here is patent publication US7169603B2, “α-MSH related compounds and methods of use” (MGI Pharma Biologics, Inc., priority 2000, dated 2007).

In test [1] the test system is TNBS-treated mice. The test is described as follows: TNBS-induced Inflammatory Bowel Disease (IBD) model. It is filed as in vivo. Particulars: intranasal administration together with TNBS. The source says:
Inflammatory Bowel Disease (IBD) was induced in mice by the administration of trinitrobenzenesulphonic acid (TNBS), in 40% EtOH, to the mice. […] The IBD model is described in, for example, Keates et al. (2000) Gastroenterology 119:972–82.
The administration of EtOH alone (no TNBS) caused no weight loss in the animals. The “untreated” mice were given only the TNBS administration. The aMSH(4-13) mice were given an administration of TNBS, together with an intranasal administration of the aMSH(4-13) analog, which reduced the severity of the TNBS-induced weight loss.

Test [2] has as its system Leptin −/− mice. Briefly: Leptin -/- mouse model of obesity. It is filed as in vivo. Particulars: 1 μg daily for three weeks, intranasally, intrarectally or subcutaneously; compared to untreated mice; FIG. 18A. The procedure:
Leptin −/− mice were used as a model of mammalian obesity to evaluate the effectiveness of an α-MSH analog and an α-MSH encoding nucleic acid to treat the condition. […] Leptin −/− obese mice were administered (either intranasally, intrarectally, or subcutaneously) with 1 μg of the α-MSH(4-13) analog daily for three weeks.

Square brackets hold non-standard residues; d marks the D form.

“Ac-CEH[dF]RWCKPV-NH2 (cysteine pairing not given here) [α-MSH(4-13) analog]”: the “survival of TNBS-treated animals” value in test [1] is given as “increased the survival”. Further, the TNBS-induced weight loss result in test [1] (FIG. 17A) is given as “decreased the weight loss”. Moreover, in test [2], the weight gain entry is given as “a decrease in weight gain”.
